The source made the active and inactive calls. The rule behind the calls is not given here.
Tested on: CCRIS mutagenicity, Ames/micronucleus/aberration tests
Experiment: CCRIS mutagenicity studies
[1] = Test System: AMES SALMONELLA TYPHIMURIUM, Strain/Indicator: TA97, Metabolic Activation: NONE, Method: PREINCUBATION
[2] = Test System: AMES SALMONELLA TYPHIMURIUM, Strain/Indicator: TA98, Metabolic Activation: NONE, Method: PREINCUBATION
[3] = Test System: AMES SALMONELLA TYPHIMURIUM, Strain/Indicator: TA100, Metabolic Activation: NONE, Method: PREINCUBATION
[4] = Test System: AMES SALMONELLA TYPHIMURIUM, Strain/Indicator: TA1535, Metabolic Activation: NONE, Method: PREINCUBATION
[5] = Test System: AMES SALMONELLA TYPHIMURIUM, Strain/Indicator: TA98, Metabolic Activation: NONE, Method: STANDARD PLATE
[6] = Test System: AMES SALMONELLA TYPHIMURIUM, Strain/Indicator: TA100, Metabolic Activation: NONE, Method: STANDARD PLATE

Q: How did the mutagenic call (Test System: AMES SALMONELLA TYPHIMURIUM, Strain/Indicator: TA97, Metabolic Activation: HAMSTER, LIVER, S-9, AROCLOR 1254 (10%), Method: PREINCUBATION) turn out when Nc1ccc2ccccc2c1N=Nc1ccc([N+](=O)[O-])cc1 was run?
A: active; positive

Q: And the mutagenic call [1]?
A: active; positive

Q: What about the mutagenic call (Test System: AMES SALMONELLA TYPHIMURIUM, Strain/Indicator: TA97, Metabolic Activation: RAT, LIVER, S-9, AROCLOR 1254 (10%), Method: PREINCUBATION) of the same compound?
A: active; positive

Q: And the mutagenic call (Test System: AMES SALMONELLA TYPHIMURIUM, Strain/Indicator: TA98, Metabolic Activation: HAMSTER, LIVER, S-9, AROCLOR 1254 (10%), Method: PREINCUBATION)?
A: active; positive

Q: And the mutagenic call [2]?
A: active; positive

Q: And the mutagenic call (Test System: AMES SALMONELLA TYPHIMURIUM, Strain/Indicator: TA98, Metabolic Activation: RAT, LIVER, S-9, AROCLOR 1254 (10%), Method: PREINCUBATION)?
A: active; positive

Q: What about the mutagenic call (Test System: AMES SALMONELLA TYPHIMURIUM, Strain/Indicator: TA100, Metabolic Activation: HAMSTER, LIVER, S-9, AROCLOR 1254 (10%), Method: PREINCUBATION) of the same compound?
A: active; positive

Q: And the mutagenic call [3]?
A: inactive; negative

Q: And the mutagenic call (Test System: AMES SALMONELLA TYPHIMURIUM, Strain/Indicator: TA100, Metabolic Activation: RAT, LIVER, S-9, AROCLOR 1254 (10%), Method: PREINCUBATION)?
A: active; positive

Q: And the mutagenic call (Test System: AMES SALMONELLA TYPHIMURIUM, Strain/Indicator: TA1535, Metabolic Activation: HAMSTER, LIVER, S-9, AROCLOR 1254 (10%), Method: PREINCUBATION)?
A: inactive; negative

Q: What about the mutagenic call [4] of the same compound?
A: inactive; negative

Q: And the mutagenic call (Test System: AMES SALMONELLA TYPHIMURIUM, Strain/Indicator: TA1535, Metabolic Activation: RAT, LIVER, S-9, AROCLOR 1254 (10%), Method: PREINCUBATION)?
A: inactive; negative

Q: For CC(=O)Nc1ccc(CC(=O)O)cc1, which mutagenic call (Test System: AMES SALMONELLA TYPHIMURIUM, Strain/Indicator: TA98, Metabolic Activation: NONE) is on record?
A: inactive; negative

Q: What about the mutagenic call (Test System: AMES SALMONELLA TYPHIMURIUM, Strain/Indicator: TA98, Metabolic Activation: RAT, LIVER, S-9, AROCLOR 1254) of the same compound?
A: inactive; negative

Q: What about the mutagenic call (Test System: AMES SALMONELLA TYPHIMURIUM, Strain/Indicator: TA100, Metabolic Activation: NONE) of the same compound?
A: inactive; negative

Q: What about the mutagenic call (Test System: AMES SALMONELLA TYPHIMURIUM, Strain/Indicator: TA100, Metabolic Activation: RAT, LIVER, S-9, AROCLOR 1254) of the same compound?
A: inactive; negative

Q: What about the mutagenic call (Test System: AMES SALMONELLA TYPHIMURIUM, Strain/Indicator: TA1535, Metabolic Activation: NONE) of the same compound?
A: inactive; negative

Q: What about the mutagenic call (Test System: AMES SALMONELLA TYPHIMURIUM, Strain/Indicator: TA1535, Metabolic Activation: RAT, LIVER, S-9, AROCLOR 1254) of the same compound?
A: inactive; negative

Q: What about the mutagenic call (Test System: AMES SALMONELLA TYPHIMURIUM, Strain/Indicator: TA1537, Metabolic Activation: NONE) of the same compound?
A: inactive; negative

Q: And the mutagenic call (Test System: AMES SALMONELLA TYPHIMURIUM, Strain/Indicator: TA1537, Metabolic Activation: RAT, LIVER, S-9, AROCLOR 1254)?
A: inactive; negative

Q: And the mutagenic call (Test System: AMES SALMONELLA TYPHIMURIUM, Strain/Indicator: TA1538, Metabolic Activation: NONE)?
A: inactive; negative

Q: And the mutagenic call (Test System: AMES SALMONELLA TYPHIMURIUM, Strain/Indicator: TA1538, Metabolic Activation: RAT, LIVER, S-9, AROCLOR 1254)?
A: inactive; negative

Q: And the mutagenic call (Test System: E. COLI, Strain/Indicator: WP2, Metabolic Activation: NONE)?
A: inactive; negative

Q: What about the mutagenic call (Test System: E. COLI, Strain/Indicator: WP2, Metabolic Activation: RAT, LIVER, S-9, AROCLOR 1254) of the same compound?
A: inactive; negative

Q: What about the mutagenic call (Test System: E. COLI, Strain/Indicator: WP2 UVRA, Metabolic Activation: NONE) of the same compound?
A: inactive; negative

Q: What about the mutagenic call (Test System: E. COLI, Strain/Indicator: WP2 UVRA, Metabolic Activation: RAT, LIVER, S-9, AROCLOR 1254) of the same compound?
A: inactive; negative

Q: With COC1=CC(=O)C[C@@H](C)[C@]12Oc1c(Cl)c(OC)cc(OC)c1C2=O as the compound, how does the mutagenic call (End Point: IN VITRO CHROMOSOMAL ABERRATIONS, Test System: PERIPHERAL HUMAN BLOOD LYMPHOCYTES, Metabolic Activation: NONE) read?
A: active; positive (ploidy changes)

Q: What about the mutagenic call (End Point: IN VITRO MICRONUCLEUS, Test System: CHO CELLS, Metabolic Activation: RAT, LIVER, S-9, AROCLOR 1254) of the same compound?
A: active; positive

Q: And the mutagenic call (End Point: IN VITRO MICRONUCLEUS, Test System: V79 CELLS, Metabolic Activation: NONE)?
A: active; positive

Q: What about the mutagenic call (Test System: AMES SALMONELLA TYPHIMURIUM, Strain/Indicator: TA97, Metabolic Activation: HAMSTER, LIVER, S-9, AROCLOR 1254 (10 OR 30%), Method: PREINCUBATION) of the same compound?
A: inactive; negative

Q: And the mutagenic call [1]?
A: inactive; negative

Q: What about the mutagenic call (Test System: AMES SALMONELLA TYPHIMURIUM, Strain/Indicator: TA97, Metabolic Activation: RAT, LIVER, S-9, AROCLOR 1254 (10 OR 30%), Method: PREINCUBATION) of the same compound?
A: inactive; negative

Q: What about the mutagenic call (Test System: AMES SALMONELLA TYPHIMURIUM, Strain/Indicator: TA98, Metabolic Activation: HAMSTER, LIVER, S-9, AROCLOR 1254 (10 OR 30%), Method: PREINCUBATION) of the same compound?
A: inactive; negative

Q: What about the mutagenic call [2] of the same compound?
A: inactive; negative

Q: What about the mutagenic call (Test System: AMES SALMONELLA TYPHIMURIUM, Strain/Indicator: TA98, Metabolic Activation: RAT, LIVER, S-9, AROCLOR 1254 (10 OR 30%), Method: PREINCUBATION) of the same compound?
A: inactive; negative

Q: What about the mutagenic call (Test System: AMES SALMONELLA TYPHIMURIUM, Strain/Indicator: TA100, Metabolic Activation: HAMSTER, LIVER, S-9, AROCLOR 1254 (10 OR 30%), Method: PREINCUBATION) of the same compound?
A: inactive; negative

Q: And the mutagenic call [3]?
A: inactive; negative

Q: What about the mutagenic call (Test System: AMES SALMONELLA TYPHIMURIUM, Strain/Indicator: TA100, Metabolic Activation: RAT, LIVER, S-9, AROCLOR 1254 (10 OR 30%), Method: PREINCUBATION) of the same compound?
A: inactive; negative

Q: What about the mutagenic call (Test System: AMES SALMONELLA TYPHIMURIUM, Strain/Indicator: TA100, Metabolic Activation: RAT, LIVER, S-9, PHENOBARBITAL, Method: PREINCUBATION) of the same compound?
A: inactive; negative

Q: And the mutagenic call (Test System: AMES SALMONELLA TYPHIMURIUM, Strain/Indicator: TA1535, Metabolic Activation: HAMSTER, LIVER, S-9, AROCLOR 1254 (10 OR 30%), Method: PREINCUBATION)?
A: inactive; negative

Q: And the mutagenic call [4]?
A: inactive; negative

Q: What about the mutagenic call (Test System: AMES SALMONELLA TYPHIMURIUM, Strain/Indicator: TA1535, Metabolic Activation: RAT, LIVER, S-9, AROCLOR 1254 (10 OR 30%), Method: PREINCUBATION) of the same compound?
A: inactive; negative

Q: And the mutagenic call (Test System: AMES SALMONELLA TYPHIMURIUM, Strain/Indicator: TA1537, Metabolic Activation: HAMSTER, LIVER, S-9, AROCLOR 1254 (30%), Method: PREINCUBATION)?
A: inactive; negative

Q: And the mutagenic call (Test System: AMES SALMONELLA TYPHIMURIUM, Strain/Indicator: TA1537, Metabolic Activation: NONE, Method: PREINCUBATION)?
A: inactive; negative

Q: What about the mutagenic call (Test System: AMES SALMONELLA TYPHIMURIUM, Strain/Indicator: TA1537, Metabolic Activation: RAT, LIVER, S-9, AROCLOR 1254 (30%), Method: PREINCUBATION) of the same compound?
A: inactive; negative

Q: What about the mutagenic call (Test System: MOUSE LYMPHOMA, Strain/Indicator: L5178Y (TK+/TK-), Metabolic Activation: NONE, Method: MICROWELL) of the same compound?
A: active; positive

Q: What about the mutagenic call (Test System: MOUSE LYMPHOMA, Strain/Indicator: L5178Y (TK+/TK-), Metabolic Activation: S-9, Method: MICROWELL) of the same compound?
A: active; positive

Q: Which results are given for O=[N+]([O-])c1ccc(/C=C/c2ccc([N+](=O)[O-])cc2)cc1?
A: mutagenic call (Test System: AMES SALMONELLA TYPHIMURIUM, Strain/Indicator: TA98 (NR), Metabolic Activation: NONE, Method: STANDARD PLATE): active; positive; mutagenic call (Test System: AMES SALMONELLA TYPHIMURIUM, Strain/Indicator: TA98 (NR), Metabolic Activation: S-9, Method: STANDARD PLATE): inactive; negative; mutagenic call [5]: active; positive; mutagenic call (Test System: AMES SALMONELLA TYPHIMURIUM, Strain/Indicator: TA98, Metabolic Activation: S-9, Method: STANDARD PLATE): active; positive; mutagenic call (Test System: AMES SALMONELLA TYPHIMURIUM, Strain/Indicator: TA100 (NR), Metabolic Activation: NONE, Method: STANDARD PLATE): inactive; negative; mutagenic call (Test System: AMES SALMONELLA TYPHIMURIUM, Strain/Indicator: TA100 (NR), Metabolic Activation: S-9, Method: STANDARD PLATE): inactive; negative; mutagenic call [6]: active; positive; mutagenic call (Test System: AMES SALMONELLA TYPHIMURIUM, Strain/Indicator: TA100, Metabolic Activation: S-9, Method: STANDARD PLATE): active; positive

Q: How did the mutagenic call [5] turn out when Oc1cc2ccccc2c2ccc3ccccc3c12 was run?
A: inactive; negative

Q: And the mutagenic call (Test System: AMES SALMONELLA TYPHIMURIUM, Strain/Indicator: TA98, Metabolic Activation: RAT, LIVER, S-9, AROCLOR 1254, Method: STANDARD PLATE)?
A: inactive; negative

Q: And the mutagenic call [6]?
A: inactive; negative

Q: What about the mutagenic call (Test System: AMES SALMONELLA TYPHIMURIUM, Strain/Indicator: TA100, Metabolic Activation: RAT, LIVER, S-9, AROCLOR 1254, Method: STANDARD PLATE) of the same compound?
A: inactive; negative

— PubChem BioAssay AID1259407 (Chemical Carcinogenesis Research Information System (CCRIS), 2018)
